Source: article PMC6584114, “Metabolism of IMM-H004 and Its Pharmacokinetic-Pharmacodynamic Analysis in Cerebral Ischemia/Reperfusion Injured Rats” (Frontiers in Pharmacology, 2019)
Where two headings read alike, the source gives them in different places.

What was measured:
[1] = Excretion in rat urine, bile and feces after iv IMM-H004 citrate; assay type: in vivo; details: iv IMM-H004 citrate 6 mg/kg
Method: After intravenous (iv) injection with IMM-H004 citrate (6 mg/kg, dissolved in saline to yield a concentration of 1.2 mg/ml), rats were housed individually in metabolic cages to allow separate collection of urine and feces until 72 h postdose. Additional rats were bile cannulated under light ether anesthesia. Each rat was housed individually in a metabolic cage and allowed to recover from anesthesia for 2 to 3 h. Then bile duct cannulated rats were iv injected with IMM-H004 citrate (6 mg/kg, dissolved in saline to yield a concentration of 1.2 mg/ml), bile samples were collected until 24 h postdose.
Feces samples were homogenized in 10-fold solvent of water and methanol (1:1) and diluted 10-fold in water. Bile and urine samples were diluted 100-fold in water. The concentrations of IMM-H004, M1, M2, and IMM-H004G in diluted bile, urine, and feces samples were determined by LC-MS/MS.
(§1) The LC-MS/MS system consisted of Shimadzu 30A UPLC and API 4000 triple quadruple mass spectrometer (AB SCIEX, USA). Data acquisition and analysis were accomplished using Analyst 1.5.2 software. The analytes and IS were chromatographed by injection of 1 μL sample. The mobile phases consisted of solvent A (0.5% formic acid in water) and solvent B (0.5% formic acid in methanol) at a flow rate of 0.3 ml/min on an Eclipse Plus C18 column (2.1 mm × 50 mm, 3.5 μm, Agilent, USA), and the operating temperature was 40°C. The elution condition was 10% solvent B for 0.7 min, ascending to 98% B in 2.3 min, holding for 3.0 min and reequilibrating to 10% B within 0.1 min and maintained for 2.4 min (Jiang JW, 2018). The specific transitions monitored were 305→248 for IMM-H004, 291→234 for M1, 291→248 for M2, 481→305 for IMM-H004G, 385→305 for M4, and 260→183 for IS.

PC12 cells = test: Neuroprotection in oxygen-glucose deprivation injured PC12 cells (MTT cell viability); assay type: cell-based
Method: The neuroprotective activity of IMM-H004 and IMM-H004G was evaluated on PC12 cells damaged by oxygen-glucose deprivation (OGD). PC12 cells were purchased from the American Type Culture Collection. Cultures were maintained at 37°C in 5% CO2 in a humidified incubator. For cell viability assay, PC12 cells were incubated in 96-well plates at a density of 5 × 10^4/ml for 24 h. In the sham group, PC12 cells were cultured in Dulbecco’s modified eagle medium supplemented with 5% fetal bovine serum and 5% equine serum (Gibco, USA). In the OGD group, PC12 cells were cultured in glucose-free Earle’s balanced salt solution supplemented with 15 mM Na2S2O4 for 2 h and then incubated with compounds of nerve growth factor (NGF, 10 μM), edaravone (10 μM, 50 μM), IMM-H004 (1 μM, 10 μM), and IMM-H004G (1 μM, 10 μM), respectively. After 24 h of incubation, MTT (5 mg/ml) was added into the cell cultures and incubated for an additional 4 h. Then the supernatant was removed and 100 μL DMSO was added. Absorbance was measured using an Ultramark microplate reader at a wavelength of 562 nm. The cell viability was expressed as a percentage of the absorbance density value of control cultures.

[2] = set-up: method as in Jiang et al., 2018; details: brain microdialysis; ref Jiang et al., 2018; cited from earlier work
MCAO/R rats = test: Neuroprotection in transient MCAO/R rats (infarct volume, neurological score); assay type: in vivo, rat; details: 10 mg/kg iv after reperfusion, 24 h, vs model
From the text: Transient MCAO/R was applied to compare the neuroprotection of IMM-H004 and IMM-H004G. Rats were fasted overnight with free access to water and randomly assigned to different groups. Rats were anesthetized with a mixture of 5% isoflurane and 95% oxygen and maintained with a mixture of 3% isoflurane and 97% oxygen during the surgical procedure. A 4-0 nylon thread, the tip of which was burned (diameter 0.36 mm), was inserted into the right internal carotid artery and advanced until the origin of the right MCA was occluded. After 60 min of the occlusion, the thread was withdrawn to allow reperfusion, and then the rats were returned to the chamber. Saline or edaravone at dose of 6 mg/kg or IMM-H004 citrate and IMM-H004G at dose of 10 mg/kg (dissolved in saline to yield a concentration of 2 mg/ml) were administered by intravenous injection immediately after reperfusion.
The rats were assessed for neurologic deficits at 24 h after reperfusion according to Zea Longa’s five-point scale. […] The animals without symptoms of neurological impairment or dying after the surgery were rejected. All animals were killed 24 h after reperfusion. Brains of the animals were removed and cut into 2 mm-thick slices, for a total of six slices per animal. The slices were immersed in a 2% solution of 2,3,5-triphenyltetrazolium chloride in phosphate buffered saline at 37°C for 20 min and then fixed in 4% formaldehyde overnight. Images of the slices were obtained with a scanner and a computer. The infarct area and the total area were calculated by tracing the areas on the computer screen with Image J. The percentage of the infarct volume was expressed as the infarct volumes (white parts)/the whole volume of the cortex.

[3] = tested on: primary human hepatocytes; test: IMM-H004 metabolism by primary human hepatocytes; assay type: in vitro ADME; details: human hepatocytes incubated with 30 nM IMM-H004, up to 3 h
Method: Primary human hepatocytes were used to predict the metabolism of IMM-H004 in humans. Cryopreserved human hepatocytes were obtained from Bioreclamation IVT (Baltimore, MD, USA). Three different hepatocyte preparations (Lot CDP, ZHL, and DSX) were pooled in this study. Hepatocytes were resuspended and seeded in 96-well plates at a density of 0.7 × 10^6 cells/ml. After 24 h of culture, cells were washed with Hanks’ balanced salt solution, followed by addition of 30 nM IMM-H004 dissolved in Hanks’ balanced salt solution. Incubations were carried out at 37°C up to 3 h under gentle shaking. Cell culture supernatant was collected within 3 h and determined by LC-MS/MS. All experiments were conducted in triplicate.
as §1

[4] = Plasma pharmacokinetics in MCAO/R rats after iv IMM-H004 citrate; assay type: in vivo; details: rat, iv IMM-H004 citrate 10 mg/kg; for Tmax: iv, 10 mg/kg
Method: The plasma pharmacokinetics (PK) and pharmacodynamics (PD) of IMM-H004 and IMM-H004G were investigated in a cerebral ischemia-reperfusion rat model produced by middle cerebral artery occlusion/reperfusion (MCAO/R) after iv administration of IMM-H004. In brief, rats underwent a 1-h MCAO and then received IMM-H004 citrate (10 mg/kg, dissolved in saline to yield a concentration of 2 mg/ml) immediately after reperfusion, an effective dosing time as reported ([Zuo et al., 2015]; [Yang et al., 2017]). For sham surgery, all the arteries were exposed for the surgical period, but the filament was not inserted into the MCA. Blood samples were collected through external jugular vein cannula into heparinized tubes at 0.033, 0.167, 0.5, 1, 2, 4, 6, 8, 12, 24, 36, and 48 h postdose for IMM-H004 and IMM-H004G detection (50 μL of blood at each time point) and at 0.5, 1, 2, 4, 7, and 10 h postdose for malondialdehyde (MDA) detection (80 μL of blood at each time point). Plasma was immediately separated by centrifugation at 900×g for 5 min. Plasma concentrations of IMM-H004 and IMM-H004G in ischemia-reperfusion rats were determined by LC-MS/MS analysis. The PK parameters were calculated by noncompartmental analysis using WinNonlin Version 6.1 (Pharsight, Mountain View, CA). Plasma MDA concentrations in ischemia-reperfusion and sham rats within 24 h were estimated by enzyme-linked immunosorbent assay.
as §1

[5] = tested on: recombinant human CYP450 enzymes; test: Metabolism by cDNA-expressed human CYP450 enzymes; assay type: in vitro ADME; details: 1 μM IMM-H004, 50 pmol/ml CYP, 40 min
Method: CYP450s. IMM-H004 was incubated in triplicate with […] individual human complementary DNA (cDNA) expressed CYPs (CYP1A1, 1A2, 2A6, 2B6, 2C8, 2C9, 2C19, 2D6, 2E1, 2J2, 3A4, 4A11, 4F2, and 4F3) at 37°C. The incubation mixtures contained individual CYP450 enzymes (50 pmol/ml), IMM-H004 (1 μM), and NADPH regeneration system in a final volume of 0.2 ml Tris-HCl buffer (50 mM, pH 7.4) containing 5 mM MgCl2. The mixtures were incubated for 40 min before being quenched with two volumes of ice-cold acetonitrile containing IS (100 ng/ml). After vortex-mixing and centrifugation, M1 and M2 in the supernatant were analyzed by LC-MS/MS.

cell cultures = details: not tested in this paper's methods; reference not given; cited from earlier work
chemokine-like factor 1 = tested on: chemokine-like factor 1; set-up: method as in earlier work; details: ref Li et al., 2010, Kong et al., 2011, Sun et al., 2013, 2014, read-out: IC50 as antagonist of chemokine-like factor 1; cited from earlier work

| recovery of IMM-H004G in bile ([1]; bile duct cannulated rats, until 24 h) | IMM-H004G in feces ([1]; rat feces) | urinary IMM-H004G recovered ([1]; rat urine, 72-h sampling period) | detection of metabolite in cell supernatant [3] | AUC(0-inf) [4] [ng·h/mL] | AUC(0-t) [4] [ng·h/mL] | Cmax [4] [ng/mL] | MRT last ([4]; read-out: MRT(0-t)) [h] | MRT inf ([4]; read-out: MRT(0-∞)) [h] | half-life ([4]; read-out: t 1/2β (converted)) [h] | Tmax ([4]; read-out: T max) [h] | Tmax ([4]; read-out: time to maximum plasma concentration after dosing) [h] | Structure (SMILES) | cell viability of OGD-injured PC12 cells (PC12 cells; 1 and 10 μM, 24 h, MTT, vs model group) | IMM-H004 detected in PC12 cultures after incubation with IMM-H004G (PC12 cells; 24 h of incubation with IMM-H004G) | exposure of IMM-H004G in rat brain extracellular fluid relative to IMM-H004 [2] [fold] | infarct volume (MCAO/R rats) | neurological test score (MCAO/R rats) | M1 formation in CYP450 enzyme incubations [5] | neuroprotective activity in cell cultures (cell cultures) | IC50 (chemokine-like factor 1) [nM] |
| --- | --- | --- | --- | --- | --- | --- | --- | --- | --- | --- | --- | --- | --- | --- | --- | --- | --- | --- | --- | --- |
| 75.9 % of intake | undetectable | 69.7 % of intake | could be detected | 29100 | 28900 | 13000 | 7.89 ± 0.57 | 8.16 ± 0.65 | 6.61 ± 0.86 | 0.17 | ≤ 0.25 | COc1cc(OC2OC(C(=O)O)C(O)C(O)C2O)cc2oc(=O)c(N3CCN(C)CC3)c(C)c12 (stereo not shown) [IMM-H004G] | significant (p < 0.05) preservation of viability | only trace of IMM-H004 could be detected | 10.5 | markedly reduced (p < 0.01) | significant improvement (p < 0.01) | – | – | – |
| – | – | – | not detectable | – | – | – | – | – | – | – | – | Cc1c(N2CCN(C)CC2)c(=O)oc2cc(O)cc(O)c12 [M1] | – | – | – | – | – | could not be detected in all CYP450 enzymes incubations | showed neuroprotective activity in cell cultures | 21.2 |
| – | – | – | not detectable | – | – | – | – | – | – | – | – | COc1cc(O)cc2oc(=O)c(N3CCNCC3)c(C)c12 [M2] | – | – | – | – | – | – | – | – |
